Test results reported in patent US20260317307A1, “Process for the Preparation of Deucravacitinib, and Crystalline Forms Thereof” (Alivus Life Sciences Limited, priority 2023, published 2026).

Assays:
[1] = Stability of crystalline form A (polymorphic form identification by XRPD on storage); assay type: physicochemical; settings: 1 Month, complies with Form A
Text: Stability data of crystalline form A of deucravacitinib prepared by the present invention: […]

[2] = Particle size of crystalline form A (Example 38); assay type: physicochemical

- Polymorphic Form Identification: XRPD pattern should exhibit characteristic peaks of Form A at 10.1°, 12.4°, 18.9°, 19.3° and 20.4° ± 0.2° 2 theta ([1]; storage 25 °C/60% RH): Complies
- Polymorphic Form Identification: XRPD pattern should exhibit characteristic peaks of Form A at 10.1°, 12.4°, 18.9°, 19.3° and 20.4° ± 0.2° 2 theta ([1]; storage 40 °C/75% RH): Complies
- Polymorphic Form Identification: XRPD pattern should exhibit characteristic peaks of Form A at 10.1°, 12.4°, 18.9°, 19.3° and 20.4° ± 0.2° 2 theta ([1]; storage 60 °C/90% RH): Complies
- Particle Size D10 ([2]; After jet milling): 1.6 μm
- Particle Size D50 ([2]; After jet milling): 3.0 μm
- Particle Size D90 ([2]; After jet milling): 5.6 μm
- Particle Size D10 ([2]; before jet milling): 9.4 μm
- Particle Size D50 ([2]; before jet milling): 21.64 μm
- Particle Size D90 ([2]; before jet milling): 39.49 μm
Structure (SMILES): [2H]C([2H])([2H])NC(=O)c1nnc(NC(=O)C2CC2)cc1Nc1cccc(-c2ncn(C)n2)c1OC [crystalline form A of deucravacitinib, 6-(cyclopropanecarboxamido)-4-((2-methoxy-3-(1-methyl-1H-1,2,4-triazol-3-yl)phenyl)amino)-N-(trideuteriomethyl)pyridazine-3-carboxamide]
